In ChEMBL document CHEMBL1201861, “Genomics of Drug Sensitity in Cancer screening data, Wellcome Trust Sanger Institute”:

What was measured:
Assay type in all cases: functional, cell-based
[1] = tested on: NCI-H1436; test: cells; conditions: Homo sapiens;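 note: growth suppression of human NCI-H1436 cells, determined with a cell viability readout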
Description: SANGER: Inhibition of human NCI-H1436 cell growth in a cell viability assay.

[2] = tested on: BC1 cell line; test: SANGER: Inhibition of human BC-1 cell growth in a cell viability assay.
[3] = tested on: REH; test: cells; conditions: Homo sapiens;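 note: growth inhibition of REH cells determined with a cell viability read-out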
Description: SANGER: Inhibition of human REH cell growth in a cell viability assay.

[4] = tested on: UACC-812; test: cells; conditions: Homo sapiens
Description: SANGER: Inhibition of human UACC-812 cell growth in a cell viability assay.

[5] = tested on: NCI-H1694; test: cells; conditions: Homo sapiens;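 note: cell viability assay measuring inhibition of growth in human NCI-H1694 cells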
Description: SANGER: Inhibition of human NCI-H1694 cell growth in a cell viability assay.

[6] = tested on: PF-382; test: cells; conditions: Homo sapiens
Description: SANGER: Inhibition of human PF-382 cell growth in a cell viability assay.

[7] = tested on: LB647-SCLC; test: cells; conditions: Homo sapiens;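 note: cell growth inhibition, read out by a viability assay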
Description: SANGER: Inhibition of human LB647-SCLC cell growth in a cell viability assay.

[8] = tested on: JIYOYE; test: cells; conditions: Homo sapiens
Description: SANGER: Inhibition of human JiyoyeP-2003 cell growth in a cell viability assay.

[9] = tested on: YT; test: cells; conditions: Homo sapiens
Description: SANGER: Inhibition of human YT cell growth in a cell viability assay.

[10] = tested on: TE-15; test: cells; conditions: Homo sapiens;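 note: cell viability readout of growth inhibition in TE-15 cells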
Description: SANGER: Inhibition of human TE-15 cell growth in a cell viability assay.

[11] = tested on: RL; test: cells; conditions: Homo sapiens
Description: SANGER: Inhibition of human RL cell growth in a cell viability assay.

[12] = tested on: BL-41; test: cells; conditions: Homo sapiens;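 note: growth inhibition of human BL-41 cells, read out with a cell viability assay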
Description: SANGER: Inhibition of human BL-41 cell growth in a cell viability assay.

[13] = tested on: Raji; test: cells; conditions: Homo sapiens;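 note: cell viability assay measuring inhibition of Raji cell growth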
Description: SANGER: Inhibition of human Raji cell growth in a cell viability assay.

[14] = tested on: CA46; test: cells; conditions: Homo sapiens;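 note: growth inhibition of human CA46 cells, read out by a cell viability assay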
Description: SANGER: Inhibition of human CA46 cell growth in a cell viability assay.

[15] = tested on: LC-1F; test: cells; conditions: Homo sapiens;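 note: growth inhibition of human LC-1F cells, read out with a cell viability assay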
Description: SANGER: Inhibition of human LC-1F cell growth in a cell viability assay.

[16] = tested on: BOKU; test: cells; conditions: Homo sapiens;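 note: growth inhibition of the human BOKU cell line, read out by a cell viability assay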
Description: SANGER: Inhibition of human BOKU cell growth in a cell viability assay.

[17] = tested on: MRK-nu-1; test: cells; conditions: Homo sapiens;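 note: cell viability assay measuring growth suppression of human MRK-nu-1 cells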
Description: SANGER: Inhibition of human MRK-nu-1 cell growth in a cell viability assay.

[18] = tested on: IMR-5; test: cells; conditions: Homo sapiens;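 note: growth inhibition of human IMR-5 cells, read out with a cell viability assay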
Description: SANGER: Inhibition of human IMR-5 cell growth in a cell viability assay.

[19] = tested on: NCI-H2171; test: cells; conditions: Homo sapiens;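 note: growth inhibition of human NCI-H2171 cells, read out by a cell viability assay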
Description: SANGER: Inhibition of human NCI-H2171 cell growth in a cell viability assay.

[20] = tested on: HCC2157; test: cells; conditions: Homo sapiens;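 note: growth inhibition of the cancer cell line, read out as cell viability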
Description: SANGER: Inhibition of human HCC2157 cell growth in a cell viability assay.

[21] = tested on: NB14; test: cells; conditions: Homo sapiens;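 note: growth inhibition of NB14 cells measured with a cell viability assay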
Description: SANGER: Inhibition of human NB14 cell growth in a cell viability assay.

[22] = tested on: NCI-H1522; test: cells; conditions: Homo sapiens;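 note: growth inhibition of NCI-H1522 cells, read out with a cell viability assay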
Description: SANGER: Inhibition of human NCI-H1522 cell growth in a cell viability assay.

[23] = tested on: HCC1599; test: cells; conditions: Homo sapiens;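 note: growth inhibition of HCC1599 cells, read out in a cell viability assay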
Description: SANGER: Inhibition of human HCC1599 cell growth in a cell viability assay.

[24] = tested on: UACC-893; test: cells; conditions: Homo sapiens
Description: SANGER: Inhibition of human UACC-893 cell growth in a cell viability assay.

[25] = tested on: SCC-25; test: cells; conditions: Homo sapiens;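 note: growth inhibition of SCC-25 cells, measured with a cell viability assay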
Description: SANGER: Inhibition of human SCC-25 cell growth in a cell viability assay.

[26] = tested on: A2058; test: cells; conditions: Homo sapiens;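 note: reduction of A2058 cell growth, read out with a viability assay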
Description: SANGER: Inhibition of human A2058 cell growth in a cell viability assay.

[27] = tested on: HMV-2 cell line; test: cells; conditions: Homo sapiens;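 note: growth inhibition of HMV-II cells, read out with a cell viability assay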
Description: SANGER: Inhibition of human HMV-II cell growth in a cell viability assay.

[28] = tested on: SiHa; test: cells; conditions: Homo sapiens;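 note: Viability-based readout of growth inhibition in SiHa cells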
Description: SANGER: Inhibition of human SiHa cell growth in a cell viability assay.

[29] = tested on: NCI-H1703; test: cells; conditions: Homo sapiens;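 note: growth inhibition of NCI-H1703 cells, read out via a cell viability assay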
Description: SANGER: Inhibition of human NCI-H1703 cell growth in a cell viability assay.

[30] = tested on: AGS; test: cells; conditions: Homo sapiens;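 note: growth inhibition of AGS cells, determined with a cell viability assay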
Description: SANGER: Inhibition of human AGS cell growth in a cell viability assay.

[31] = tested on: 786-0; test: cells; conditions: Homo sapiens
Description: SANGER: Inhibition of human 786-0 cell growth in a cell viability assay.

[32] = tested on: NCI-H650; test: cells; conditions: Homo sapiens;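 note: growth inhibition of NCI-H650 cells, read out by a viability assay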
Description: SANGER: Inhibition of human NCI-H650 cell growth in a cell viability assay.

[33] = tested on: PFSK-1; test: cells; conditions: Homo sapiens;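 note: cell viability assay measuring how strongly compounds suppress growth of human PFSK-1 cells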
Description: SANGER: Inhibition of human PFSK-1 cell growth in a cell viability assay.

[34] = tested on: HCC 2998; test: cells; conditions: Homo sapiens;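 note: growth inhibition of human HCC2998 cells, measured with a cell viability read-out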
Description: SANGER: Inhibition of human HCC2998 cell growth in a cell viability assay.

[35] = tested on: C-33-A; test: cells; conditions: Homo sapiens;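 note: cell viability assay measuring growth inhibition of C-33-A cells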
Description: SANGER: Inhibition of human C-33-A cell growth in a cell viability assay.

[36] = tested on: BCPAP; test: cells; conditions: Homo sapiens;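 note: growth inhibition of BCPAP cells, read out in a cell viability assay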
Description: SANGER: Inhibition of human BCPAP cell growth in a cell viability assay.

[37] = tested on: EGI-1; test: cells; conditions: Homo sapiens;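 note: cell viability readout used to gauge growth inhibition of EGI-1 cells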
Description: SANGER: Inhibition of human EGI-1 cell growth in a cell viability assay.

[38] = tested on: Hs-578T; test: cells; conditions: Homo sapiens
Description: SANGER: Inhibition of human Hs-578-T cell growth in a cell viability assay.

[39] = tested on: HLE; test: cells; conditions: Homo sapiens;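 note: growth inhibition of human HLE cells, read out by a cell viability assay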
Description: SANGER: Inhibition of human HLE cell growth in a cell viability assay.

[40] = tested on: HSC-4; test: cells; conditions: Homo sapiens;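 note: growth inhibition of human HSC-4 cells, read out with a cell viability assay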
Description: SANGER: Inhibition of human HSC-4 cell growth in a cell viability assay.

[41] = tested on: HCC38; test: cells; conditions: Homo sapiens;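 note: cell viability assay on the human HCC38 cell line, with IC50 marking the concentration that inhibits cell growth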
Description: SANGER: Inhibition of human HCC38 cell growth in a cell viability assay.

[42] = tested on: SW1990; test: cells; conditions: Homo sapiens
Description: SANGER: Inhibition of human SW1990 cell growth in a cell viability assay.

[43] = tested on: DMS-273; test: cells; conditions: Homo sapiens
Description: SANGER: Inhibition of human DMS-273 cell growth in a cell viability assay.

[44] = tested on: SK-MEL-30; test: cells; conditions: Homo sapiens;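 note: growth inhibition of SK-MEL-30 cells, determined with a cell viability assay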
Description: SANGER: Inhibition of human SK-MEL-30 cell growth in a cell viability assay.

[45] = tested on: NCI-H2405; test: cells; conditions: Homo sapiens;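 note: growth inhibition of the human cell line, read out with a cell viability assay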
Description: SANGER: Inhibition of human NCI-H2405 cell growth in a cell viability assay.

[46] = tested on: SJRH30; test: cells; conditions: Homo sapiens;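 note: growth inhibition of human SJRH30 cells, read out with a cell viability assay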
Description: SANGER: Inhibition of human SJRH30 cell growth in a cell viability assay.

[47] = tested on: A2780; test: cells; conditions: Homo sapiens;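 note: growth inhibition of A2780 cells, read out with a cell viability assay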
Description: SANGER: Inhibition of human A2780 cell growth in a cell viability assay.

[48] = tested on: MC-IXC; test: cells; conditions: Homo sapiens;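 note: growth inhibition of MC-IXC cells, read out with a cell viability assay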
Description: SANGER: Inhibition of human MC-IXC cell growth in a cell viability assay.

[49] = tested on: HCC1569; test: cells; conditions: Homo sapiens;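 note: growth inhibition of human HCC1569 cells, read out with a cell viability assay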
Description: SANGER: Inhibition of human HCC1569 cell growth in a cell viability assay.

[50] = tested on: WM-115; test: cells; conditions: Homo sapiens
Description: SANGER: Inhibition of human WM-115 cell growth in a cell viability assay.

[51] = tested on: HSC-2; test: cells; conditions: Homo sapiens;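 note: growth inhibition of human HSC-2 cells, read out by a cell viability assay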
Description: SANGER: Inhibition of human HSC-2 cell growth in a cell viability assay.

[52] = tested on: U-118-MG; test: cells; conditions: Homo sapiens
Description: SANGER: Inhibition of human U-118-MG cell growth in a cell viability assay.

[53] = tested on: NCI-H2228; test: cells; conditions: Homo sapiens;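 note: growth inhibition of human NCI-H2228 cells, read out by a cell viability assay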
Description: SANGER: Inhibition of human NCI-H2228 cell growth in a cell viability assay.

[54] = tested on: CAL-39; test: cells; conditions: Homo sapiens;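 note: cell viability assay measuring growth inhibition of CAL-39 cells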
Description: SANGER: Inhibition of human CAL-39 cell growth in a cell viability assay.

[55] = tested on: DoTc2-4510; test: cells; conditions: Homo sapiens
[56] = tested on: NCI-H2347; test: cells; conditions: Homo sapiens;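 note: growth inhibition of the cell line, read out with a cell viability assay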
Description: SANGER: Inhibition of human NCI-H2347 cell growth in a cell viability assay.

[57] = tested on: A-427; test: cells; conditions: Homo sapiens;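 note: growth inhibition of human A-427 cells, read out by a cell viability assay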
Description: SANGER: Inhibition of human A427 cell growth in a cell viability assay.

[58] = tested on: Ca9-22; test: cells; conditions: Homo sapiens;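 note: growth inhibition of Ca9-22 cells, read out with a cell viability assay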
Description: SANGER: Inhibition of human Ca9-22 cell growth in a cell viability assay.

[59] = tested on: BEN; test: cells; conditions: Homo sapiens;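 note: growth inhibition of the BEN cell line, read out with a cell viability assay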
Description: SANGER: Inhibition of human BEN cell growth in a cell viability assay.

[60] = tested on: SW48; test: cells; conditions: Homo sapiens;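 note: growth inhibition of SW48 cells, read out with a cell viability assay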
Description: SANGER: Inhibition of human SW48 cell growth in a cell viability assay.

[61] = tested on: DBTRG-05MG; test: cells; conditions: Homo sapiens;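 note: cell viability assay measuring growth inhibition of human DBTRG-05MG cells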
Description: SANGER: Inhibition of human DBTRG-05MG cell growth in a cell viability assay.

[62] = tested on: NCI-H28; test: cells; conditions: Homo sapiens;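 note: growth inhibition of human NCI-H28 cells, read out as cell viability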
Description: SANGER: Inhibition of human NCI-H28 cell growth in a cell viability assay.

[63] = tested on: BT-20; test: cells; conditions: Homo sapiens;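 note: cell viability assay measuring suppression of growth in human BT-20 cells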
Description: SANGER: Inhibition of human BT-20 cell growth in a cell viability assay.

[64] = tested on: ACHN; test: cells; conditions: Homo sapiens;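 note: cell viability read-out used to gauge how strongly growth of human ACHN cells is suppressed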
Description: SANGER: Inhibition of human ACHN cell growth in a cell viability assay.

[65] = tested on: ESS-1; test: cells; conditions: Homo sapiens
Description: SANGER: Inhibition of human ESS-1 cell growth in a cell viability assay.

For `Cc1[nH]c(/C=C2\C(=O)Nc3ccc(S(=O)(=O)Cc4c(Cl)cccc4Cl)cc32)c(C)c1C(=O)N1CCC[C@@H]1CN1CCCC1` [PHA-665752], the IC50 [1] was > 2000 nM, the IC50 [2] was > 2000 nM and the IC50 [3] was > 2000 nM. The IC50 [4] was > 2000 nM, the IC50 [5] was > 2000 nM and the IC50 [6] was > 2000 nM. For the same compound, the IC50 [7] was > 2000 nM, the IC50 [8] was > 2000 nM and the IC50 [9] was > 2000 nM. For the same compound, the IC50 [10] was > 2000 nM, the IC50 [11] was > 2 µM and the IC50 [12] was > 2000 nM. For the same compound, the IC50 [13] was > 2000 nM, the IC50 [14] was > 2000 nM and the IC50 [15] was > 2000 nM. For the same compound, the IC50 [16] was > 2000 nM, the IC50 [17] was > 2000 nM and the IC50 [18] was > 2000 nM. The IC50 [19] was > 2000 nM, the IC50 [20] was > 2000 nM and the IC50 [21] was > 2000 nM. For the same compound, the IC50 [22] was > 2000 nM and the IC50 [23] was > 2000 nM.

In the case of `CO[C@@]12[C@H](COC(N)=O)C3=C(C(=O)C(C)=C(N)C3=O)N1C[C@@H]1N[C@@H]12` [MITOMYCIN], the IC50 [24] is reported as 418 nM, the IC50 [1] is reported as 1930 nM and the IC50 [25] is reported as 870 nM. For the same compound, the IC50 [2] was 88.8 nM, the IC50 [3] was < 62.5 nM and the IC50 [26] was 115 nM. For the same compound, the IC50 [27] was 166 nM, the IC50 [4] was > 16000 nM and the IC50 [5] was 415 nM. It also gave an IC50 [28] of 1890 nM, an IC50 [29] of 277 nM and an IC50 [30] of 106 nM. The IC50 [31] was < 62.5 nM, the IC50 [32] was 344 nM and the IC50 [33] was 5880 nM. For the same compound, the IC50 [34] was 160 nM, the IC50 [6] was 251 nM and the IC50 [35] was 487 nM. The IC50 [36] was 240 nM, the IC50 [37] was 2390 nM and the IC50 [38] was 6.2 µM. It also gave an IC50 [7] of 336 nM, an IC50 [39] of 498 nM and an IC50 [40] of 434 nM. For the same compound, the IC50 [41] was 604 nM, the IC50 [8] was 630 nM and the IC50 [42] was 637 nM. It also gave an IC50 [9] of 463 nM, an IC50 [43] of 161 nM and an IC50 [44] of 474 nM. It also gave an IC50 [10] of 73.7 nM, an IC50 [11] of 5.44 µM and an IC50 [45] of 294 nM. It also gave an IC50 [12] of 295 nM, an IC50 [13] of 1220 nM and an IC50 [46] of 1670 nM. The IC50 [47] was 107 nM, the IC50 [48] was < 62.5 nM and the IC50 [14] was 1020 nM. The IC50 [49] was 645 nM, the IC50 [50] was > 16000 nM and the IC50 [51] was 83.4 nM. For the same compound, the IC50 [15] was 862 nM, the IC50 [52] was 3140 nM and the IC50 [53] was < 62.5 nM. It also gave an IC50 [54] of 46.5 nM, an IC50 [55] of 180 nM and an IC50 [56] of 850 nM. It also gave an IC50 [16] of 104 nM, an IC50 [57] of 301 nM and an IC50 [17] of 110 nM. It also gave an IC50 [58] of 156 nM, an IC50 [59] of 935 nM and an IC50 [60] of 193 nM. The IC50 [61] was 570 nM, the IC50 [18] was < 62.5 nM and the IC50 [62] was 2440 nM. It also gave an IC50 [19] of 1500 nM, an IC50 [20] of 727 nM and an IC50 [63] of 312 nM. The IC50 [64] was 72.1 nM, the IC50 [65] was < 62.5 nM and the IC50 [22] was 3240 nM. It also gave an IC50 [23] of 120 nM.

With `C/C=C(/C)C(=O)O[C@H]1C(C)=C2[C@H]([C@@H]1OC(=O)CCCCCCC)[C@@](C)(OC(C)=O)C[C@H](OC(=O)CCC)[C@@]1(O)[C@H]2OC(=O)[C@@]1(C)O` [THAPSIGARGIN] the IC50 [24] was 58.7 nM, the IC50 [1] was > 512 nM and the IC50 [25] was 9.71 nM. It also gave an IC50 [2] of 23.2 nM, an IC50 [3] of 6.39 nM and an IC50 [26] of 2.69 nM. The IC50 [27] was 6.87 nM, the IC50 [4] was > 512 nM and the IC50 [5] was 72.8 nM. The IC50 [28] was > 512 nM, the IC50 [29] was 10.1 nM and the IC50 [30] was 8.78 nM. For the same compound, the IC50 [31] was < 2 nM, the IC50 [32] was 296 nM and the IC50 [33] was 12.8 nM. The IC50 [34] was < 2 nM, the IC50 [6] was 25.9 nM and the IC50 [35] was 9.77 nM. The IC50 [36] was < 2 nM, the IC50 [37] was 21.7 nM and the IC50 [38] was > 0.512 µM. For the same compound, the IC50 [7] was 4.86 nM, the IC50 [39] was 2.75 nM and the IC50 [40] was > 512 nM. The IC50 [41] was 1.37 nM, the IC50 [8] was 7.21 nM and the IC50 [42] was < 2 nM. The IC50 [9] was 13.1 nM, the IC50 [43] was < 2 nM and the IC50 [44] was 3.24 nM. For the same compound, the IC50 [10] was 4.91 nM, the IC50 [11] was > 0.512 µM and the IC50 [45] was 1.14 nM. The IC50 [12] was < 2 nM, the IC50 [13] was 38.4 nM and the IC50 [46] was 8.84 nM. The IC50 [47] was < 2 nM, the IC50 [48] was 37.6 nM and the IC50 [14] was 2.98 nM. It also gave an IC50 [49] of 17.9 nM, an IC50 [50] of 21.9 nM and an IC50 [51] of 2.99 nM. It also gave an IC50 [15] of 4.19 nM, an IC50 [52] of 31.9 nM and an IC50 [53] of 8 nM. For the same compound, the IC50 [54] was < 2 nM, the IC50 [55] was 12.4 nM and the IC50 [56] was 10.2 nM. For the same compound, the IC50 [16] was > 512 nM, the IC50 [57] was 2.12 nM and the IC50 [17] was 23.2 nM. The IC50 [58] was 22.8 nM, the IC50 [59] was 13.9 nM and the IC50 [60] was 1.67 nM. For the same compound, the IC50 [61] was 11.7 nM, the IC50 [18] was 15.6 nM and the IC50 [62] was > 512 nM. For the same compound, the IC50 [19] was 12.5 nM, the IC50 [20] was 3.49 nM and the IC50 [63] was > 512 nM. The IC50 [64] was 28.6 nM, the IC50 [65] was 7.58 nM and the IC50 [22] was > 512 nM. For the same compound, the IC50 [23] was 194 nM.
